This note sets out measurements from patent US20240189289A1, “INHIBITORS OF EPHB3 SIGNALING” (The Brigham and Women`s Hospital, Inc., priority 2021, published 2024).

One assay concerns astrocytes. In words: TNFα production in astrocytes (AlphaLISA, astrocyte-microglia co-cultures). It is filed as cell-based, mouse. The settings on record: primary astrocytes. The method, then:
AlphaLISA. Astrocyte-microglia co-cultures were seeded in 384 well plates pre coated with Poly-L-Lysine at a density of 10^4 cells/well. After 3 days, cells were preincubated with the corresponding compounds 30 minutes before LPS stimulation (0.5 ng/mL Invivogen #tlrl-3pelps) and supernatants were collected after 18 h of incubation. mTNFalpha kit (Perkin Elmer #AL505) was used to measure TNFα in the supernatants following the high sensitivity protocol according to manufacturer's instructions. Briefly, 2 μl of the supernatants or given standards were subsequently mixed with 5 μl of anti-TNFα acceptor beads, 30 minutes after biotinylated antibody anti-TNFα was added after 1 h SA-Donor beads were added and incubated 30 minutes. All incubations were performed at 23° C. in the dark. Fluorescence at 615 nm was then measured using an EnVision-Apha Reader (Perkin Elmer #2105-0010).
(Alpha assays give light when donor and acceptor beads are brought close together.)

Another assay concerns splenic CD11b+ monocytes. In words: Monocyte migration assay with astrocyte-conditioned medium. It is filed as cell-based, mouse. The note with it: ACM from astrocytes pre-treated with compound. As to the method: Generation of astrocyte-conditioned medium (ACM). […] After 24 h, cells were extensively washed with 1×PBS, and incubated with fresh astrocyte complete medium for 48 h. Supernatants were spun down and kept at −80° C. until tested in migration and neurotoxicity assays.
Monocyte Migration Assay. Monocytes were purified from spleens from C57BL/6J mice using CD11b Microbeads (#130-049-601, Miltenyi) following the manufacturer's instructions. 100,000 monocytes were seeded in the upper chamber of a 24-well cell culture transwell, with a 5 μm pore size (#3421, Thermo Fisher Scientific), containing 300 μL of astrocyte-conditioned medium (as detailed earlier) in the bottom chamber. After 3 h incubation at 37° C. in 5% CO2, cells were collected from the lower chamber after shaking and accutase solution incubation (#A6964, Sigma-Aldrich) and quantified by FACS.

Another assay concerns NOD EAE. In words: Chronic progressive EAE in NOD mice (MOG35-55). It is filed as in vivo, mouse. As to the method:
EAE. […] EAE was assessed as follows: 0, no signs of disease; 1, loss of tone in the tail; 2, hind limb paresis; 3, hind limb paralysis; 4, tetraplegia; 5, moribund.
To further validate the potential of EphB3 kinase inhibition for the therapeutic modulation of CNS inflammation and neurodegeneration, a study was performed using non-obese diabetic (NOD) mouse model of chronic progressive EAE induced by immunization with MOG35-55, which recapitulated aspects of secondary progressive MS, including the progressive and irreversible accumulation of neurologic disability.

For assay [1], the system named is PI3K/AKT/mTOR signaling in astrocytes. In words: Western blot of PI3K/AKT/mTOR/NF-κB signaling in primary murine astrocytes. It is filed as cell-based, mouse. The method, then:
Mouse primary astrocyte cultures. […] The cell suspension was then cultured at 37° C. in humidified 5% CO2 on poly-L-Lysine (#P4707, Sigma-Aldrich) pre-coated cell culture flasks. Medium was replaced every 3-5 days. The cells reached confluence after 7-10 days. Microglia were separated by shaking the glia culture at 225 rpm at 37° C. for at least 3 h and washing extensively with 1×PBS. Astrocytes were detached by mild trypsinization with Trypsin-EDTA (0.05%) at 37° C. and plated. […] Both cell types were then cultured separately for downstream procedures. […] Finally, microglia and astrocytes of each condition where magnetically separated as before and lysed for downstream gene expression analysis.
SDS-PAGE and Western blot. […] Membranes were blocked in 10% skimmed milk (#M0841, Lab Scientific) in TBS-T (#IBB-180-2L, Boston BioProducts). Primary antibodies were incubated ON at 4° C. and secondary 30 minutes at RT.
HRP-conjugated blots were developed using the KwikQuant imaging system and KwikQuant western blot detection kit (#R1004 Kindle Biosciences).
Background: In western blotting, separated proteins are transferred to a membrane and probed.

In another assay the test system is primary astrocytes. The experiment in a line: Seahorse Mito Stress test (oxygen consumption) in primary astrocytes. It is filed as cell-based, mouse. As to the method:
Oxygen consumption. […] Mito Stress assay was then performed with Seahorse XF Cell Mito Stress Test Kit (Agilent Technologies, #103015-100) following the manufacturer's manual. […] The assay medium (DEMEM with 10 mM Glucose, 1 mM pyruvate and 2 mM glutamine) was used during the assay. The OCR rate was normalized to cell number estimated using CyQUANT cell proliferation assay kit (Invitrogen, #C7026).

Setting [2] is: astrocytes activated 30 minutes with TNFα and IL-1β.
[3] abbreviates: astrocytes stimulated with TNFα and IL-1β.

Entries after “also recorded” stand apart in the source; their conditions may differ.

Take `O=C(Nc1ccccc1Cl)c1cnc2ccc(C3CCNCC3)cn12` [A38]: the “TNFα production in astrocytes” value in the assay with astrocytes is “suppressed TNFα production; also recorded: highly efficient in down-modulating TNF-α production”. In addition, the ACM chemoattractant activity result in the assay on splenic CD11b+ monocytes is “reduced ACM neurotoxic and chemoattractant activity”. In addition, the “NOD EAE clinical scores” value with NOD EAE (administration during the progressive phase) is recorded as “ameliorated NOD EAE, as indicated by the reduced clinical scores”. Also, in the assay with NOD EAE (progressive phase of NOD EAE), the “astrocyte and microglial expression of transcriptional modules associated with CNS inflammation and neurodegeneration” value is recorded as “suppressed”; the “peripheral T-cell response” value was “no changes in the peripheral T-cell response were detected”; the “recruitment of pro-inflammatory monocytes to the CNS” value is recorded as “decreased recruitment”. In addition, in assay [1] (setting [2]), the “phosphorylation of AKT” value was “suppressed” and the “phosphorylation of p85a, p55a” value is reported as “suppressed”. In assay [1] (setting [3]), the “NF-κB activation (p65 phosphorylation and nuclear translocation)” value was “did not suppress NF-κB activation”; the S6 phosphorylation entry is given as “suppressed S6 phosphorylation”. In the assay on primary astrocytes, the ATP-linked respiration result was “decreased”, the basal mitochondrial respiration entry is listed as “decreased” and the maximal mitochondrial respiration entry is reported as “decreased”.
